Measurements as given in ChEMBL document CHEMBL1156278, “Novel benzothiophene H1-antihistamines for the treatment of insomnia” (Bioorg Med Chem Lett, 2010).

Legend:
Cytochrome P450 2D6 = Cytochrome P450 2D6 (Homo sapiens, UniProt P10635); experiment: Inhibition of recombinant CYP2D6 after 30 mins by fluorescence assay
Cytochrome P450 3A4 = Cytochrome P450 3A4 (Homo sapiens, UniProt P08684); experiment: Inhibition of recombinant CYP3A4 after 30 mins by fluorescence assay
[1] = target: T1, Voltage-gated inwardly rectifying potassium channel KCNH2 (Homo sapiens, UniProt Q12809); experiment: Inhibition of human ERG expressed in HEK cells assessed as blockade of potassium tail current by standard patch clamp analysis
[2] = target: T1, Voltage-gated inwardly rectifying potassium channel KCNH2; experiment: Displacement of [3H]Dofetilide from human ERG
[3] = target: T2, Muscarinic acetylcholine receptor M1 (Homo sapiens, UniProt P11229); experiment: Displacement of [3H]N-methylscopolamine from human muscarinic M1 receptor expressed in CHO Flp-In cells after 90 mins by scintillation counting; format: cell-based
T2 sequence (P11229 whole entry): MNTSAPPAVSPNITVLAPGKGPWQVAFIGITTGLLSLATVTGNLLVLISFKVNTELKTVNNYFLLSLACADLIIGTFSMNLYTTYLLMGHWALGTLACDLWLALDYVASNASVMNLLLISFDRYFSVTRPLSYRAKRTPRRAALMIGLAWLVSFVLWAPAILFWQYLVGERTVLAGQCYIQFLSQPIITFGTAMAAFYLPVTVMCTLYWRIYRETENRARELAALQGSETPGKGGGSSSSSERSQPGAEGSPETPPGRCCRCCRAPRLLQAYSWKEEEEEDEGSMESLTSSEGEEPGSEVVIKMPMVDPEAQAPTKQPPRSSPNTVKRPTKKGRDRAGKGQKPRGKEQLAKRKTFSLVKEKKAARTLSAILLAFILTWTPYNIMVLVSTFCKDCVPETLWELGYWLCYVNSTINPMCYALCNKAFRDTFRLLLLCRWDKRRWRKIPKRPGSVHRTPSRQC

Histamine H1 receptor = Histamine H1 receptor (Homo sapiens, UniProt P35367); experiment: Displacement of [3H]pyrilamine from human histamine H1 receptor expressed in CHO Flp-In cells after 90 mins by scintillation counting; format: cell-based
Rattus norvegicus [4] = experiment: Increase in NREM sleep in CD IGS rat model of insomnia at 30 mg/kg, po after 4 hrs by EEG/EMG study relative to control; format: functional
Rattus norvegicus [5] = experiment: Effect on sleep-awake pattern in CD IGS rat model of insomnia assessed as longest 3 REM bouts at 30 mg/kg, po after 6 hrs by EEG/EMG study relative to control; format: functional
Rattus norvegicus [6] = experiment: Effect on sleep-awake pattern in CD IGS rat model of insomnia assessed as latency to NREM sleep at 30 mg/kg, po by EEG/EMG study relative to control; format: functional
Rattus norvegicus [7] = experiment: Effect on sleep-awake pattern in CD IGS rat model of insomnia assessed as latency to REM sleep at 30 mg/kg, po by EEG/EMG study relative to control; format: functional
Rattus norvegicus [8] = experiment: Increase in REM sleep in CD IGS rat model of insomnia at 30 mg/kg, po after 4 hrs by EEG/EMG study relative to control; format: functional
Rattus norvegicus [9] = experiment: Effect on sleep-awake pattern in CD IGS rat model of insomnia assessed as longest 3 NREM bouts at 30 mg/kg, po after 6 hrs by EEG/EMG study relative to control; format: functional

Sequence of Cytochrome P450 2D6 (P10635 whole entry): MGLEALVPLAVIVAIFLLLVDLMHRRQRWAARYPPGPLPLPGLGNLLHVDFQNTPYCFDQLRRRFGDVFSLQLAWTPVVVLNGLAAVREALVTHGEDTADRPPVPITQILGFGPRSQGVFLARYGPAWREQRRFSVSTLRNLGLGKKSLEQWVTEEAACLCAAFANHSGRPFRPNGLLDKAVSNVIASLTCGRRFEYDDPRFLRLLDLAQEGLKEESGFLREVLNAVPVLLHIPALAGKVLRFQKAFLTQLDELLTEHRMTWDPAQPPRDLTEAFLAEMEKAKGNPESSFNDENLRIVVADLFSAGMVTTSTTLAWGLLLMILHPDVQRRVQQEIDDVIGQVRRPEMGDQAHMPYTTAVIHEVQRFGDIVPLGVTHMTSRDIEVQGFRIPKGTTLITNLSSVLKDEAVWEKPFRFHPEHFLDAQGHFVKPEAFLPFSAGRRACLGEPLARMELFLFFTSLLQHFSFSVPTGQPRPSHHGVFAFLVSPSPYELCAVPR
Sequence of Histamine H1 receptor (P35367 whole entry): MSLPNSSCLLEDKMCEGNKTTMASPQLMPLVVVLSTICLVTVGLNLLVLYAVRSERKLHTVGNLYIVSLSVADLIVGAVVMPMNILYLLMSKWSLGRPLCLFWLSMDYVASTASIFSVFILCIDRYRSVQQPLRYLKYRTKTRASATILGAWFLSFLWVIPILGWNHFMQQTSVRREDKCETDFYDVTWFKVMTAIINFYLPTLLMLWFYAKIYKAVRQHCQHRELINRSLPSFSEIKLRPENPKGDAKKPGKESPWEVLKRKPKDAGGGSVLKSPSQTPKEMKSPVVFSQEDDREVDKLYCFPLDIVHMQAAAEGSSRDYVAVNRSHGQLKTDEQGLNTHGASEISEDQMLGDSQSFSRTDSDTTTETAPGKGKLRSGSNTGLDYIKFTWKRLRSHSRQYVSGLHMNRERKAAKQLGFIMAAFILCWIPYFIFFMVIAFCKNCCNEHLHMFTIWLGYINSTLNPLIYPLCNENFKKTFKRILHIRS
T1 sequence (Q12809 whole entry): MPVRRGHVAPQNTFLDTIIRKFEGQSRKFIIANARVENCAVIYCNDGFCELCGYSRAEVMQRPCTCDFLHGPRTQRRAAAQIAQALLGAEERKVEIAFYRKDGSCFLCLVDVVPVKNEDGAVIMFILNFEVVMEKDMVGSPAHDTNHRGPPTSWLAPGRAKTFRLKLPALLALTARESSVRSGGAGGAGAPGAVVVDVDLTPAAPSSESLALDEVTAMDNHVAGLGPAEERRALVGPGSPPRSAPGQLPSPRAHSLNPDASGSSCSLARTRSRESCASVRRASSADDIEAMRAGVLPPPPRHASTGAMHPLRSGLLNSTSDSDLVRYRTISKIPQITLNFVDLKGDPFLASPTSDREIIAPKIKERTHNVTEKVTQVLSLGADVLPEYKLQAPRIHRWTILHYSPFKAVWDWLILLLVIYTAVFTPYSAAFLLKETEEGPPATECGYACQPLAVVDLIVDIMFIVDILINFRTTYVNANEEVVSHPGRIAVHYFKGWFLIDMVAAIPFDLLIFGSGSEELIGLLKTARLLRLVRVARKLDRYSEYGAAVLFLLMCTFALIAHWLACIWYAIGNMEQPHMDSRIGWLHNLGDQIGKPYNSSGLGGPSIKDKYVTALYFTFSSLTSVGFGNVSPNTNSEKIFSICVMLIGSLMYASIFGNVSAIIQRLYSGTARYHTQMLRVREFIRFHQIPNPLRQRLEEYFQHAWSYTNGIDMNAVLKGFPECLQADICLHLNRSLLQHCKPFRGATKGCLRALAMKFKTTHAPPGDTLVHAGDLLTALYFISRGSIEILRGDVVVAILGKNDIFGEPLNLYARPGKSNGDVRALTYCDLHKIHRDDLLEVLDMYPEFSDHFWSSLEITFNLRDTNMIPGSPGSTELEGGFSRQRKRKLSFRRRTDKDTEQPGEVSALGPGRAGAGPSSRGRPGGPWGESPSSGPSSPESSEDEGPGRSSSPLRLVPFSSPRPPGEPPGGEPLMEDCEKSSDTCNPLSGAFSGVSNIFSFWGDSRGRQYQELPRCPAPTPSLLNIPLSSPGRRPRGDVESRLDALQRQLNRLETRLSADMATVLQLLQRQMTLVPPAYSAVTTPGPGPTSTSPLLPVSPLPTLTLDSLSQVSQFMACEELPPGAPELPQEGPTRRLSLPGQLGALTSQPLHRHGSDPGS
Sequence of Cytochrome P450 3A4 (P08684 whole entry): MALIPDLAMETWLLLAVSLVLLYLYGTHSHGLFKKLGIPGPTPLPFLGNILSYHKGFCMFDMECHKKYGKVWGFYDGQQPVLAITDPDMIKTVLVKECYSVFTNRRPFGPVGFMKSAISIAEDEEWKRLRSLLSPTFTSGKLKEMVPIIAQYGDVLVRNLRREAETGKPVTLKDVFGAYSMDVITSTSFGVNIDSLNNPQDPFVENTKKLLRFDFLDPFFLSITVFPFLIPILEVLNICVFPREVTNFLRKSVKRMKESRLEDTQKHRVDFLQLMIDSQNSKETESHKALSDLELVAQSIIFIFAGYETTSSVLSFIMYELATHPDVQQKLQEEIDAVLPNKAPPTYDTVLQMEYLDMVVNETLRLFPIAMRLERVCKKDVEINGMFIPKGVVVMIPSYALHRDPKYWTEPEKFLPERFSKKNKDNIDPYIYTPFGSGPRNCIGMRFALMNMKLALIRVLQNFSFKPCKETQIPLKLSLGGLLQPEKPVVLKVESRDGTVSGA

Compound	IC50 (Cytochrome P450 2D6)	IC50 (Cytochrome P450 3A4)	Ki [2]	Ki (Histamine H1 receptor; read-out: Ki)	Ki ([3]; read-out: Ki)	other results
CNCCc1sc2ccccc2c1[C@@H](C)c1ccccn1	9.8 µM	> 10 µM	> 5 µM	0.032 µM		IC50 [1]: 6.5 µM; Ki [3]: 3.7 µM
C[C@@H](c1cncs1)c1c(CCN(C)C)sc2ccccc12		> 10 µM	> 5 µM	0.0052 µM	> 10 µM	
Cc1ccc(-c2nc3ccc(C)cn3c2CC(=O)N(C)C)cc1 [ZOLPIDEM]						Activity (Rattus norvegicus [4]): 47.8%; Activity (Rattus norvegicus [5]): 1.2 min; Activity (Rattus norvegicus [6]): 6 min; Activity (Rattus norvegicus [7]): 101 min; Activity (Rattus norvegicus [8]): 2.3%; Activity (Rattus norvegicus [9]): 14.5 min
CC(c1nccs1)c1c(CCN(C)C)sc2ccccc12 (racemic)		> 10 µM	> 5 µM	0.035 µM	2.07 µM	
Cc1ccnc(C(C)c2c(CCN(C)C)sc3ccccc23)c1 (racemic)		> 10 µM	> 5 µM	0.39 µM	> 10 µM	
CC(c1ccccn1)c1c(CCN(C)C)sc2ccccc12 (racemic)	6.9 µM	> 10 µM	> 5 µM	0.012 µM	1.4 µM	
C[C@H](c1ccccn1)c1c(CCN(C)C)sc2ccccc12	3.3 µM	> 10 µM	> 5 µM		0.99 µM	Ki (Histamine H1 receptor): 0.256 µM
C[C@H](c1cccnc1Cl)c1c(CCN(C)C)sc2ccccc12	9.5 µM	> 10 µM	> 5 µM	0.0029 µM	> 10 µM	IC50 [1]: 1.5 µM
Cc1cccnc1[C@H](C)c1c(CCN(C)C)sc2ccccc12		> 10 µM		0.0093 µM	> 10 µM	
Cc1ncccc1[C@@H](C)c1c(CCN(C)C)sc2ccccc12	> 10 µM	> 10 µM	> 5 µM	0.017 µM	> 10 µM	
CC(c1cccc(F)n1)c1c(CCN(C)C)sc2ccccc12 (racemic)		> 10 µM	> 5 µM	0.038 µM	> 10 µM	
C[C@@H](c1ccc(F)cn1)c1c(CCN(C)C)sc2ccccc12	> 10 µM	> 10 µM	2.5 µM	0.013 µM	> 10 µM	IC50 [1]: 0.24 µM
COc1cccc(C(C)c2c(CCN(C)C)sc3ccccc23)n1 (racemic)		> 10 µM	> 5 µM	0.059 µM	> 10 µM	
C[C@@H](c1ncccc1Cl)c1c(CCN(C)C)sc2ccccc12	1.5 µM	> 10 µM	> 5 µM	0.008 µM	> 10 µM	
